Drawing on patent publication US20050154042A1, “N-alkyl pyrroles as HMG-CoA reductase inhibitors” (priority 2003, published 2005), this text covers melting point for 24 compounds.

Counter-ions that a name gives are not always drawn.

The term melting point denotes the temperature of the solid-liquid transition. As for `CC(C)n1c(/C=C/[C@@H](O)C[C@@H](O)CC(=O)O)c(-c2ccc(F)cc2)c(-c2ccccc2)c1C(=O)Nc1ccc(S(N)(=O)=O)cc1` (as salt: sodium) [Example 5, (3R,5S)-7-[3-(4-Fluoro-phenyl)-1-isopropyl-4-phenyl-5-(4-sulfamoyl-phenylcarbamoyl)-1H-pyrrol-2-yl]-3,5-dihydroxy-hept-6-enoic Acid Sodium Salt], the melting point fell in the range of 255 to 256 °C.
On to `CC(C)n1c(CCC(O)C[C@@H](O)CC(=O)O)c(-c2ccc(F)cc2)c(-c2ccccc2)c1C(=O)Nc1ccc(F)cc1` (stereo partly drawn) (as salt: sodium) [Example 8, (3R)-7-[3-(4-Fluoro-phenyl)-5-(4-fluoro-phenylcarbamoyl)-1-isopropyl-4-phenyl-1H-pyrrol-2-yl]-3,5-dihydroxy-heptanoic Acid Sodium Salt], for which the melting point was 240 to 242 °C.
`CC(C)n1c(CC[C@@H](O)C[C@@H](O)CC(=O)O)c(-c2ccc(F)cc2)c(-c2ccccc2)c1C(=O)NCc1ccc(F)cc1` (as salt: sodium) [Example 9, (3R,5R)-7-[5-(4-Fluoro-benzylcarbamoyl)-3-(4-fluoro-phenyl)-1-isopropyl-4-phenyl-1H-pyrrol-2-yl]-3,5-dihydroxy-heptanoic Acid Sodium Salt] yielded a melting point of 218 to 220 °C.
The compound `CC(C)n1c(/C=C/[C@@H](O)C[C@@H](O)CC(=O)O)c(-c2ccc(F)cc2)c(-c2ccccc2)c1C(=O)NCc1ccc(F)cc1` (as salt: sodium) [Example 10, (3R,5S)-7-[5-(4-Fluoro-benzylcarbamoyl)-3-(4-fluoro-phenyl)-1-isopropyl-4-phenyl-1H-pyrrol-2-yl]-3,5-dihydroxy-hept-6-enoic Acid Sodium Salt] gave a melting point of 221 to 223 °C.
In the case of `CC(C)n1c(CC[C@@H](O)C[C@@H](O)CC(=O)O)c(-c2ccc(F)cc2)c(-c2ccc(F)cc2)c1C(=O)Nc1ccc(S(N)(=O)=O)cc1` (as salt: sodium) [Example 11, (3R,5R)-7-[3,4-Bis-(4-fluoro-phenyl)-1-isopropyl-5-(4-sulfamoyl-phenylcarbamoyl)-1H-pyrrol-2-yl]-3,5-dihydroxy-heptanoic Acid Sodium Salt], the melting point was in the range of 261 to 263 °C.
On to `CC(C)n1c(CC[C@@H](O)C[C@@H](O)CC(=O)O)c(-c2ccc(F)cc2)c(-c2ccc(F)cc2)c1C(=O)Nc1ccc(CC(N)=O)cc1` (as salt: sodium) [Example 13], for which the melting point lay in the range of 248 to 250 °C.
For `CC(C)n1c(/C=C/[C@@H](O)C[C@@H](O)CC(=O)O)c(-c2ccc(F)cc2)c(-c2ccc(F)cc2)c1C(=O)Nc1ccc(CC(N)=O)cc1` (as salt: sodium) [Example 14, (3R,5S)-7-[5-(4-Carbamoylmethyl-phenylcarbamoyl)-3,4-bis-(4-fluoro-phenyl)-1-isopropyl-1H-pyrrol-2-yl]-3,5-dihydroxy-hept-6-enoic Acid Sodium Salt], the melting point was 220 to 222 °C.
Take `CC(C)n1c(CC[C@@H](O)C[C@@H](O)CC(=O)O)c(-c2ccc(F)cc2)c(-c2ccccc2)c1C(=O)NCc1nc2ccccc2[nH]1` (as salt: sodium) [Example 92]: the melting point is 234 to 236 °C (dec.).
Under `CC(C)n1c(CC[C@@H](O)C[C@@H](O)CC(=O)O)c(-c2ccc(F)cc2)c(-c2ccccc2)c1C(=O)NCc1cn2c(n1)CCCC2` (as salt: sodium) [Example 93, (3R,5R)-7-[3-(4-Fluorophenyl)-1-isopropyl-5-[(5,6,7,8-tetrahydro-imidazo[1,2-a]pyridin-2-yl Methyl)carbamoyl]-4-phenyl-1H-pyrrol-2-yl]-3,5-dihydroxyheptanoic Acid Sodium Salt] stands 239 to 241 °C (dec.); under `Cc1c[nH]c(CNC(=O)c2c(-c3ccccc3)c(-c3ccc(F)cc3)c(CC[C@@H](O)C[C@@H](O)CC(=O)O)n2C(C)C)n1` (as salt: sodium) [Example 95], 213 to 215 °C (dec.).
On to `Cc1cnc(CNC(=O)c2c(-c3ccccc3)c(-c3ccc(F)cc3)c(CC[C@@H](O)C[C@@H](O)CC(=O)O)n2C(C)C)cn1` (as salt: sodium) [Example 97, (3R,5R)-7-[3-(4-Fluorophenyl)-1-isopropyl-5-[(5-methylpyrazin-2-ylmethyl)carbamoyl]-4-phenyl-1H-pyrrol-2-yl]-3,5-dihydroxyheptanoic Acid Sodium Salt], for which the melting point lay in the range of 184 to 188 °C.
In turn, `CC(C)n1c(/C=C/[C@@H](O)C[C@@H](O)CC(=O)[O-])c(-c2ccc(F)cc2)c(-c2ccccc2)c1C(=O)Nc1ccccc1.[Na+]` [Example 2, (3R,5S)-7-[3-(4-Fluoro-phenyl)-1-isopropyl-4-phenyl-5-phenylcarbamoyl-1H-pyrrol-2-yl]-3,5-dihydroxy-hept-6-enoic Acid Sodium Salt] displayed a melting point of 239 to 241 °C.
Take `CC(C)n1c(CCC(O)C[C@@H](O)CC(=O)[O-])c(-c2ccc(F)cc2)c(-c2ccccc2)c1C(=O)Nc1ccccc1.[Na+]` (stereo partly drawn) [Example 3, (3R)-7-[3-(4-Fluoro-phenyl)-1-isopropyl-4-phenyl-5-phenylcarbamoyl-1H-pyrrol-2-yl]-3,5-dihydroxy-heptanoic Acid Sodium Salt]: the melting point is 240 to 242 °C.
As to `CC(C)n1c(CC[C@@H](O)C[C@@H](O)CC(=O)[O-])c(-c2ccc(F)cc2)c(-c2ccccc2)c1C(=O)Nc1ccc(S(N)(=O)=O)cc1.[Na+]` [Example 4, (3R,5R)-7-[3-(4-Fluoro-phenyl)-1-isopropyl-4-phenyl-5-(4-sulfamoyl-phenylcarbamoyl)-1H-pyrrol-2-yl]-3,5-dihydroxy-heptanoic Acid Sodium Salt], the melting point fell in the range of 265 to 267 °C.
Under `COC(=O)C[C@H]1C[C@@H](CCc2c(-c3ccc(F)cc3)c(-c3ccc(F)cc3)cn2C(C)C)OC(C)(C)O1` [Example 24, (4R,6R)-(6-{2-[3,4-Bis-(4-fluoro-phenyl)-1-isopropyl-1H-pyrrol-2-yl]-ethyl}-2,2-dimethyl-[1,3]dioxan-4-yl)-acetic Acid Methyl Ester] stands 55 to 57 °C; under `CC(C)n1c(/C=C/[C@@H](O)C[C@@H](O)CC(=O)[O-])c(-c2ccc(F)cc2)c(-c2ccc(F)cc2)c1C(=O)Nc1cccc(C(=O)N(C)C)c1.[Na+]` [Example 68, trans-(3R,5S)-7-[5-(3-dimethylcarbamoyl-phenylcarbamoyl)-3,4-bis-(4-fluoro-phenyl)-1-isopropyl-1H-pyrrol-yl]-3,5-dihydroxy-hept-6-enoate Sodium Salt], 210 to 214 °C.
Turning to `CC(C)n1c(CC[C@@H](O)C[C@@H](O)CC(=O)[O-])c(-c2ccc(F)cc2)c(-c2ccc(F)cc2)c1C(=O)NCc1ccccn1.[Na+]` [Example 69, (3R,5R)-7-{3,4-bis-(4-fluoro-phenyl)-1-isopropyl-5-[(pyridin-2-ylmethyl)-carbamoyl]-1H-pyrrol-2-yl}-3,5-dihydroxy-heptanoate Sodium Salt], the melting point was in the range of 200 to 205 °C.
Compound `CC(C)n1c(CC[C@@H](O)C[C@@H](O)CC(=O)[O-])c(-c2ccc(F)cc2)c(-c2ccc(F)cc2)c1C(=O)NCc1cccc(S(=O)(=O)N(C)C)c1.[Na+]` [Example 71, (3R,5R)-7-[5-(3-dimethylsulfamoyl-benzylcarbamoyl)-3,4-bis-(4-fluoro-phenyl)-1-isopropyl-1H-pyrrol-2-yl]-3,5-dihydroxy-heptanoate Sodium Salt] displayed a melting point of 172 to 175 °C.
Compound `Cc1cc(CNC(=O)c2c(-c3ccccc3)c(-c3ccc(F)cc3)c(/C=C/[C@@H](O)C[C@@H](O)CC(=O)[O-])n2C(C)C)no1.[Na+]` [Example 79, trans-(3R,5 S)-7-{3-(4-fluoro-phenyl)-1-isopropyl-5-[(5-methyl-isoxazole-3-yl Methyl)-carbamoyl]-4-phenyl-1H-pyrrol-2-yl}-3,5-dihydroxy-hept-6-enoate Sodium Salt] displayed a melting point of 200 to 203 °C.
`CC(C)n1c(CC[C@@H](O)C[C@@H](O)CC(=O)[O-])c(-c2ccc(F)cc2)c(-c2ccc(F)cc2)c1C(=O)Nc1ccc(C(=O)N(C)C)cc1.[Na+]` [Example 85, (3R,5R)-7-[5-(4-dimethylcarbamoyl-phenylcarbamoyl)-3,4-bis-(4-fluoro-phenyl)-1-isopropyl-1H-pyrrol-yl]-3,5-dihydroxy-heptanoate Sodium Salt] came in with a melting point of 220 to 223 °C.
Regarding `CC(C)n1c(CC[C@@H](O)C[C@@H](O)CC(=O)[O-])c(-c2ccc(F)cc2)c(-c2ccccc2)c1C(=O)NCCc1ccccc1.[Na+]` [Example 91, (3R,5R)-7-[3-(4-Fluorophenyl)-1-isopropyl-5-(phenethylcarbamoyl)-4-phenyl-1H-pyrrol-2-yl]-3,5-dihydroxyheptanoic Acid Sodium Salt], the melting point was 197 to 200 °C.
Consider `CC(C)n1c(C=C[C@H](O)C[C@@H](O)CC(=O)[O-])c(-c2ccc(F)cc2)c(-c2ccc(F)cc2)c1C(=O)Nc1ccc(CS(C)(=O)=O)cc1.[Na+]` [Example 106, (3R,5R)-7-[3,4-Bis-(4-fluoro-phenyl)-1-isopropyl-5-(4-methanesulfonylmethyl-phenyl-carbamoyl)-1H-pyrrol-2-yl]-3,5-dihydroxy-hept-6-enoic Acid, Sodium Salt], for which the melting point was 256 °C (dec.).
`CC(C)n1c(CC[C@@H](O)C[C@@H](O)CC(=O)[O-])c(-c2ccc(F)cc2)c(-c2ccccc2)c1C(=O)Nc1cccc(C(=O)N(C)C)c1.[Na+]` [Example 108, (3R,5R)-7-[5-(3-Dimethylcarbamoyl-phenylcarbamoyl)-3-(4-fluoro-phenyl)-1-isopropyl-4-phenyl-1H-pyrrol-2-yl]-3,5-dihydroxy-heptanoic Acid, Sodium Salt] gave a melting point of 156 to 205 °C.
The value for `COc1cccc(CNC(=O)c2c(-c3ccc(F)cc3)c(-c3ccc(F)cc3)c(CC[C@@H](O)C[C@@H](O)CC(=O)[O-])n2C(C)C)c1.[Na+]` [Example 110, (3R,5R)-7-[3,4-Bis-(4-fluoro-phenyl)-1-isopropyl-5-(3-methoxy-benzylcarbamoyl)-1H-pyrrol-2-yl]-3,5-dihydroxy-heptanoic Acid, Sodium Salt] was 207 to 209 °C.
